The record followed here is US11247990B1, “Bicyclic fused pyridine compounds as inhibitors of TAM kinases” (ARRAY BIOPHARMA INC., priority 2017, dated 2022).

SMILES strings stand for the structures. Where a name gives a salt, the structure may show the parent alone.

Details in all cases: averaged IC50
Test [1] has as its target GST-tagged recombinant human TYRO3 kinase domain (Homo sapiens (Human), UniProt Q06418). Briefly: TYRO3 Enzyme Assay (LanthaScreen Eu Kinase Binding, TR-FRET). In outline:
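LanthaScreen Eu binding (tracer displacement) format read by TR-FRET after 60 min at 22 °C. Emission ratio converted to percent of control; IC50 taken where a 4-parameter logistic fit crosses 50 POC.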

The target in test [2] is His-tagged recombinant human AXL cytoplasmic domain (Homo sapiens (Human), UniProt P30530). Briefly: AXL Enzyme Assay (LanthaScreen Eu Kinase Binding, TR-FRET). The method, boiled down: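 Compound displacement measured by TR-FRET after 60 min at 22 °C, using Eu-based LanthaScreen binding technology. Ratiometric emission converted to percent of control, fitted to a 4-parameter logistic curve, with IC50 at 50 POC.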
(In TR-FRET formats the signal depends on donor and acceptor labels being close together.)

In test [3] the target is His-tagged recombinant human MER cytoplasmic domain (Homo sapiens (Human), UniProt Q12866). Nature of the test: MER Enzyme Assay (LanthaScreen Eu Kinase Binding, TR-FRET). In outline:
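Percent of control, derived from ratiometric TR-FRET emission, was fitted to a 4-parameter logistic curve and IC50 taken at 50 POC. Binding was read after 60 min at 22 °C using Eu-based LanthaScreen technology and recombinant His-tagged MER cytoplasmic domain.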

Chain of His-tagged recombinant human AXL cytoplasmic domain (P30530 473-894): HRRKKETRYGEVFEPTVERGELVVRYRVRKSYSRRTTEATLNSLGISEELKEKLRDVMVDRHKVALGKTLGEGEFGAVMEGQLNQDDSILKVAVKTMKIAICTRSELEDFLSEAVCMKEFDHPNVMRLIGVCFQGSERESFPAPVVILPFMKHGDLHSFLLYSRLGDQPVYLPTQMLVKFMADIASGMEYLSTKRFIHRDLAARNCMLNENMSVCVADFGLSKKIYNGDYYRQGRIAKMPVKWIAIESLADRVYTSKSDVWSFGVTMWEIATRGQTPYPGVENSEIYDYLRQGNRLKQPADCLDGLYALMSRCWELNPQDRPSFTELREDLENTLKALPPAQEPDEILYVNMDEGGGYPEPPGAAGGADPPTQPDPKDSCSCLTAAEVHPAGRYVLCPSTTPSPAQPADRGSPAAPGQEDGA
Chain of His-tagged recombinant human MER cytoplasmic domain (Q12866 527-999): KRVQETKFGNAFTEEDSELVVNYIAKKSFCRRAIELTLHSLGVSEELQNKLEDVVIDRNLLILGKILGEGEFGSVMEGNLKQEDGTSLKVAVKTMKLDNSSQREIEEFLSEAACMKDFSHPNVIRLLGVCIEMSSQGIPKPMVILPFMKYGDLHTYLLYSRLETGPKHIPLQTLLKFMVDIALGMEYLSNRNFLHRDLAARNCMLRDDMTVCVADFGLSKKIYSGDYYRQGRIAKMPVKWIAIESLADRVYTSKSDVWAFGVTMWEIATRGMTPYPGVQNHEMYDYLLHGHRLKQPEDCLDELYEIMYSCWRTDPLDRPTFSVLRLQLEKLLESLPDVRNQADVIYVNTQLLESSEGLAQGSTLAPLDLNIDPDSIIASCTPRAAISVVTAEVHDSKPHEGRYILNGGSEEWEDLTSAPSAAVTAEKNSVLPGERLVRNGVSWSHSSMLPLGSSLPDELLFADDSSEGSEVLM
Chain of GST-tagged recombinant human TYRO3 kinase domain (Q06418 518-790): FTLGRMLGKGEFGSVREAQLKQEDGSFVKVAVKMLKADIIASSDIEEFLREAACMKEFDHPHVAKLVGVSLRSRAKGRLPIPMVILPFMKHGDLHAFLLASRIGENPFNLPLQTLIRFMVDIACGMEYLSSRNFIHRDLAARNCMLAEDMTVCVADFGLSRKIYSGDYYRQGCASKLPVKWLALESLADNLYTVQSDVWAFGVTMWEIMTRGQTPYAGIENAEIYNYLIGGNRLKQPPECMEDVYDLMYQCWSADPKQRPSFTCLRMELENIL

Turning to `CNc1cc2c(cn1)c(-c1ccc3c(c1)CNC3=O)nn2[C@H]1CC[C@@H](Oc2cccnc2C(F)(F)F)CC1` [Example 218, 5-(6-(methylamino)-1-((1s,4s)-4-((2-(trifluoromethyl)pyridin-3-yl)oxy)cyclohexyl)-1H-pyrazolo[4,3-c]pyridin-3-yl)isoindolin-1-one], the IC50 in test [1], in test [2] and in test [3] was under 10 nM each time.
Regarding `CCNc1cc2c(cn1)c(-c1ccn(C)c(=O)c1)nn2[C@H]1CC[C@@H](Oc2cccnc2C(F)(F)F)CC1` [Example 219, 4-(6-(ethylamino)-1-((1s,4s)-4-((2-(trifluoromethyl)pyridin-3-yl)oxy)cyclohexyl)-1H-pyrazolo[4,3-c]pyridin-3-yl)-1-methylpyridin-2(1H)-one hydrochloride], the IC50 in test [1], in test [2] and in test [3] was under 10 nM each time.
As for `CCNc1cc2c(cn1)c(-c1ccc3c(c1)CNS3(=O)=O)nn2[C@H]1CC[C@@H](Oc2cn(C)nc2C(F)(F)F)CC1` [Example 221, 5-(6-(ethylamino)-1-((1s,4s)-4-((1-methyl-3-(trifluoromethyl)-1H-pyrazol-4-yl)oxy)cyclohexyl)-1H-pyrazolo[4,3-c]pyridin-3-yl)-2,3-dihydrobenzo[d]isothiazole 1,1-dioxide], the IC50 in test [1], in test [2] and in test [3] was under 10 nM throughout.
As to `CCNc1cc2c(cn1)c(-c1ccc3c(c1)CN(C)S3(=O)=O)nn2[C@H]1CC[C@@H](Oc2cn(C)nc2C(F)(F)F)CC1` [Example 222, 5-(6-(ethylamino)-1-((1s,4s)-4-((1-methyl-3-(trifluoromethyl)-1H-pyrazol-4-yl)oxy)cyclohexyl)-1H-pyrazolo[4,3-c]pyridin-3-yl)-2-methyl-2,3-dihydrobenzo[d]isothiazole 1,1-dioxide], the IC50 in test [1], in test [2] and in test [3] was under 10 nM each time.
For the compound `CCNc1cc2c(cn1)c(-c1cnn(C[C@H](O)C(C)(C)O)c1)nn2[C@H]1CC[C@@H](Oc2nccc(C(F)(F)F)c2F)CC1` [Example 236, (S)-1-(4-(6-(ethylamino)-1-((1s,4R)-4-((3-fluoro-4-(trifluoromethyl)pyridin-2-yl)oxy)cyclohexyl)-1H-pyrazolo[4,3-c]pyridin-3-yl)-1H-pyrazol-1-yl)-3-methylbutane-2,3-diol], the IC50 (as a rule, the concentration that gives 50% inhibition) in test [1] was 10 to 100 nM; in test [2], under 10 nM; in test [3], under 10 nM.
Consider `CCNc1cc2c(cn1)c(-c1cnn(C[C@@H](O)C(C)(C)O)c1)nn2[C@H]1CC[C@@H](Oc2nccc(C(F)(F)F)c2F)CC1` [Example 237, (R)-1-(4-(6-(ethylamino)-1-((1s,4R)-4-((3-fluoro-4-(trifluoromethyl)pyridin-2-yl)oxy)cyclohexyl)-1H-pyrazolo[4,3-c]pyridin-3-yl)-1H-pyrazol-1-yl)-3-methylbutane-2,3-diol], for which the IC50 in test [1] was 10 to 100 nM; in test [2], under 10 nM; in test [3], under 10 nM.
On to `CCNc1cc2c(cn1)c(-c1cnn(CC(C)(O)CO)c1)nn2[C@H]1CC[C@@H](Oc2nccc(C(F)(F)F)c2F)CC1` (stereo partly drawn) [Example 238, 3-(4-(6-(ethylamino)-1-((1s,4s)-4-((3-fluoro-4-(trifluoromethyl)pyridin-2-yl)oxy)cyclohexyl)-1H-pyrazolo[4,3-c]pyridin-3-yl)-1H-pyrazol-1-yl)-2-methylpropane-1,2-diol], for which the IC50 in test [1] is 10 to 100 nM; in test [2] it was under 10 nM; in test [3], under 10 nM.
On to `CCNc1cc2c(cn1)c(-c1cnn(C[C@H](O)[C@H](C)O)c1)nn2[C@H]1CC[C@@H](Oc2nccc(C(F)(F)F)c2F)CC1` [Example 239, (2S,3S)-1-(4-(6-(ethylamino)-1-((1s,4R)-4-((3-fluoro-4-(trifluoromethyl)pyridin-2-yl)oxy)cyclohexyl)-1H-pyrazolo[4,3-c]pyridin-3-yl)-1H-pyrazol-1-yl)butane-2,3-diol], for which the IC50 in test [1], in test [2] and in test [3] was under 10 nM in each case.
As to `CCNc1cc2c(cn1)c(-c1cnn(C[C@@H](O)CO)c1)nn2[C@H]1CC[C@@H](Oc2cc(Cl)ccn2)CC1` [Example 246, (R)-3-(4-(1-((1s,4S)-4-((4-chloropyridin-2-yl)oxy)cyclohexyl)-6-(ethylamino)-1H-pyrazolo[4,3-c]pyridin-3-yl)-1H-pyrazol-1-yl)propane-1,2-diol], the IC50 in test [1] was 10 to 100 nM; in test [2] it was under 10 nM; in test [3], under 10 nM.
As to `CCNc1cc2c(cn1)c(-c1cnn(C[C@@H](O)C(C)(C)O)c1)nn2[C@H]1CC[C@@H](Oc2cn(C)nc2C(F)(F)F)CC1` [Example 247, (R)-1-(4-(6-(ethylamino)-1-((1s,4S)-4-((1-methyl-3-(trifluoromethyl)-1H-pyrazol-4-yl)oxy)cyclohexyl)-1H-pyrazolo[4,3-c]pyridin-3-yl)-1H-pyrazol-1-yl)-3-methylbutane-2,3-diol], the IC50 in test [1], in test [2] and in test [3] was under 10 nM each time.
Consider `CCNc1cc2c(cn1)c(-c1cnn(CC(N)=O)c1)nn2[C@H]1CC[C@@H](Oc2nccc(C(F)(F)F)c2F)CC1` [Example 248, 2-(4-(6-(ethylamino)-1-((1s,4s)-4-((3-fluoro-4-(trifluoromethyl)pyridin-2-yl)oxy)cyclohexyl)-1H-pyrazolo[4,3-c]pyridin-3-yl)-1H-pyrazol-1-yl)acetamide], for which the IC50 in test [1], in test [2] and in test [3] was under 10 nM in each case.
As to `CCNc1cc2c(cn1)c(C1=CCN(C)CC1)nn2[C@H]1CC[C@@H](Oc2nccc(C(F)(F)F)c2F)CC1` [Example 255], the IC50 in test [1] was 10 to 100 nM; in test [2], under 10 nM; in test [3], under 10 nM.
Turning to `CCNc1cc2c(cn1)c(-c1cnn(CC(=O)NC)c1)nn2[C@H]1CC[C@@H](Oc2nccc(C(F)(F)F)c2F)CC1` [Example 258, 2-(4-(6-(ethylamino)-1-((1s,4s)-4-((3-fluoro-4-(trifluoromethyl)pyridin-2-yl)oxy)cyclohexyl)-1H-pyrazolo[4,3-c]pyridin-3-yl)-1H-pyrazol-1-yl)-N-methylacetamide], the half-maximal inhibitory concentration (IC50) in test [1], in test [2] and in test [3] was under 10 nM in each case.
Take `CCNc1cc2c(cn1)c(-c1cnn(C(C)(C)C#N)c1)nn2[C@H]1CC[C@@H](Oc2nccc(C(F)(F)F)c2F)CC1` [Example 260, 2-(4-(6-(ethylamino)-1-((1s,4s)-4-((3-fluoro-4-(trifluoromethyl)pyridin-2-yl)oxy)cyclohexyl)-1H-pyrazolo[4,3-c]pyridin-3-yl)-1H-pyrazol-1-yl)-2-methylpropanenitrile]: the IC50 in test [1] was 100 to 1000 nM; in test [2], under 10 nM; in test [3], under 10 nM.
Take `CCNc1cc2c(cn1)c(-c1ccc(CN3CCN(C)CC3)cc1)nn2[C@H]1CC[C@@H](Oc2nccc(C(F)(F)F)c2F)CC1` [Example 261, N-ethyl-1-((1s,4s)-4-((3-fluoro-4-(tnfluoromethyl)pyridin-2-yl)oxy)cyclohexyl)-3-(4-((4-methylpiperazin-1-yl)methyl)phenyl)-1H-pyrazolo[4,3-c]pyridin-6-amine]: the IC50 in test [1] is 10 to 100 nM; in test [2] it was under 10 nM; in test [3], under 10 nM.
Regarding `CNc1cc2c(cn1)c(-c1cnn(C)c1)nn2[C@H]1CC[C@@H](Oc2cnn(C)c2C(F)(F)F)CC1` [Example 262, N-methyl-3-(1-methyl-1H-pyrazol-4-yl)-1-((1s,4s)-4-((1-methyl-5-(trifluoromethyl)-1H-pyrazol-4-yl)oxy)cyclohexyl)-1H-pyrazolo[4,3-c]pyridin-6-amine], the IC50 was 10 to 100 nM in test [1], under 10 nM in test [2] and under 10 nM in test [3].
With `CNc1cc2c(cn1)c(-c1cnn(C(C)(C)C#N)c1)nn2[C@H]1CC[C@@H](Oc2cnn(C)c2C(F)(F)F)CC1` [Example 263, 2-methyl-2-(4-(1-((1s,4s)-4-((1-methyl-5-(trifluoromethyl)-1H-pyrazol-4-yl)oxy)cyclohexyl)-6-(methylamino)-1H-pyrazolo[4,3-c]pyridin-3-yl)-1H-pyrazol-1-yl)propanenitrile], the IC50 was 100 to 1000 nM in test [1], under 10 nM in test [2] and under 10 nM in test [3].
On to `CNc1cc2c(cn1)c(-c1ccc(CN3CCN(C)CC3)cc1)nn2[C@H]1CC[C@@H](Oc2cnn(C)c2C(F)(F)F)CC1` [Example 264, N-methyl-1-((1s,4s)-4-((1-methyl-5-(trifluoromethyl)-1H-pyrazol-4-yl)oxy)cyclohexyl)-3-(4-((4-methylpiperazin-1-yl)methyl)phenyl)-1H-pyrazolo[4,3-c]pyridin-6-amine], for which the 50% inhibitory concentration (IC50) in test [1] is 10 to 100 nM; in test [2], under 10 nM; in test [3], under 10 nM.
Take `CCNc1cc2c(cn1)c(-c1cnn(CC(C)(C)CO)c1)nn2[C@H]1CC[C@@H](Oc2nccc(C(F)(F)F)c2F)CC1` [Example 271, 3-(4-(6-(ethylamino)-1-((1s,4s)-4-((3-fluoro-4-(trifluoromethyl)pyridin-2-yl)oxy)cyclohexyl)-1H-pyrazolo[4,3-c]pyridin-3-yl)-1H-pyrazol-1-yl)-2,2-dimethylpropan-1-ol hydrochloride]: the IC50 in test [1] was 10 to 100 nM; in test [2], under 10 nM; in test [3], under 10 nM.
